Measurements from publication PMC9926489, “Chemical Optimization of Selective Pseudomonas aeruginosa LasB Elastase Inhibitors and Their Impact on LasB-Mediated Activation of IL-1β in Cellular and Animal Infection Models” (ACS Infectious Diseases, 2023).

Assays:
IL-1β activation = IL-1β activation in P. aeruginosa-infected THP-1 macrophages (HEK IL-1R-lux reporter assay); type: cell-based, human; conditions: Homo sapiens; PAO1-infected THP-1 macrophages, IL-1 reporter assay; read-out: EC50, decrease in IL-1β activation
Protocol: Further to showing in vitro inhibition of LasB-mediated pro-IL-1β proteolysis, experiments were performed to determine the effect of compounds 12 and 16 on IL-1β activation and functionality in human macrophage cell cultures infected with P. aeruginosa PAO1, or an isogenic lasB deletion mutant thereof (ΔlasB). In these experiments, the levels of LasB activity in culture supernatants were measured via hydrolysis of the Sub115 fluorescent peptide, while the effect of LasB activity on IL-1β activation (functionality) was measured using a luciferase reporter cell line sensitive to IL-1β induction (Figure 3).
Human THP-1 macrophages were cultured by conventional methods then, pre-infection, culture media were replaced by RPMI lacking phenol red and antibiotics. […] After 2 h post-infection, 50 μL aliquots of supernatant were removed and used to quantitate both LasB activity and IL-1β functionality. To determine LasB activity, 50 μL of supernatant was added to Sub115 IL-1β peptide and hydrolysis of Sub115 was monitored spectrophotometrically with excitation at 355 nm and emission at 450 nm, as described above. Results were expressed as relative fluorescence units (RFU).
To determine IL-1β functionality, generation of an IL-1 signal was quantified by adding 50 μL of supernatant to HEK IL-1R-lux reporter cells cultured in RPMI supplemented with 5% heat-inactivated FBS, 200 μg/mL penicillin/streptomycin, 200 μg/mL hygromycin, 100 μg/mL zeomycin, and 0.5 μg/mL puromycin. No bacteria survived in this antibiotic condition; 18 h post-treatment, IL-1β-dependent luciferase induction was assayed by luminescence measured with D-luciferin substrate (Steady-Luc, Biotium) on a multimode reader (PerkinElmer) and expressed as relative luminescence units (RU), as previously described.[16]
In the first variation, experimental infections were performed with P. aeruginosa PAO1 and ΔlasB bacteria incubated with varying quantities of inhibitor at final concentrations ranging from 0.5 to 8 μM. […]

[1] = Plasma protein binding by equilibrium dialysis; type: in vitro ADME; conditions: mouse plasma, 10 μM compound; read-out: PPB (mouse) % bound (converted)
Protocol: Mouse plasma protein binding (PPB) was determined by equilibrium dialysis with 10 μM compound over 4 h at 37 °C. Compound recoveries were determined by HPLC-MS/MS.

LasB S241G = target: T1, LasB S241G (Pseudomonas aeruginosa, UniProt P14756, S241G); experiment: LasB variant inhibition, culture supernatant: S241G; type: biochemical, P. aeruginosa
T1 construct: endogenous in cells; host or cells: P. aeruginosa clinical CF isolate, culture supernatant
T1 sequence (P14756 198-498 S241G): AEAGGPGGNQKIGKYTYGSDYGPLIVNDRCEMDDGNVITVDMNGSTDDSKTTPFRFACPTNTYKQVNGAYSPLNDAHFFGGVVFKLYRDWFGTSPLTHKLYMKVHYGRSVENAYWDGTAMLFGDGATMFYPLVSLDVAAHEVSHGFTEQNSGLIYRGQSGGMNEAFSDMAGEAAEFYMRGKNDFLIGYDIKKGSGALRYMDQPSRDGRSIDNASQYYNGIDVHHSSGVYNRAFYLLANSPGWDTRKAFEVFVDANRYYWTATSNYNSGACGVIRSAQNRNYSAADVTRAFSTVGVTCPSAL
Excerpt: Compounds 12 and 16 were discovered as a result of optimizing potency against the LasB protein expressed from the wild-type (WT) reference strain P. aeruginosa PAO1. To understand the relative prevalence of the WT LasB protein versus other variants in clinical respiratory P. aeruginosa strains, the full-length lasB gene was amplified by PCR from 255 clinical isolates (obtained from CF sputum samples). […] Most changes were identified in the mature peptide, however some occurred in the propeptide domain, which could affect LasB processing (marked in italics in Table 4).
LasB inhibition assays were performed using purified LasB enzyme (1 ng/well) for compound screening or using culture supernatants (prepared as described in the ECR assay) for testing LasB variants. Hydrolysis of the fluorogenic peptide substrate 2-aminobenzoyl-Ala-Gly-Leu-Ala-4-nitrobenzylamide (Abz-AGLA-Nba; Peptide International) in 50 mM Tris-HCl (pH 7.4), supplemented with 2.5 mM CaCl2 was followed using an Envision microplate reader (PerkinElmer) at 315 nm excitation and 430 nm emission. […] IC50 values were determined from Hill plots using Dotmatics Studies ELN software. For the mechanism of inhibition studies, hydrolysis rates were measured in the presence of variable concentrations of substrate and inhibitor, and the inhibition constant (Ki) was determined using Dixon plot analysis.[31]

MMP-13 = MMP-13 (Homo sapiens, UniProt P45452); experiment: MMP-13 selectivity assay; type: biochemical; conditions: human MMP-13
Protocol: Selectivity of compound inhibition was evaluated against other proteases at concentrations between 0.4 and 200 μM. Activity against rabbit angiotensin-converting enzyme (ACE, Sigma) was assessed using 10 μM fluorogenic substrate Abz-Phe-Arg-Lys(Dnp)-P (Enzo Life Sciences) in 100 mM Tris-HCl pH 7, 50 mM NaCl, 10 μM Zn SO4. Activity against human matrix metalloproteases (MMP)-2 and MMP-9 was assessed in 50 mM HEPES pH 7.5, 10 mM CaCl2, 0.01% Triton X-100 using 4 μM fluorogenic substrate Mca-Pro-Leu-Gly-Leu-Dpa-Ala-Arg-NH2 (Enzo Life Sciences). Activity against MMP-1 and MMP-13 was assessed in 25 mM HEPES pH 7.5, 100 mM NaCl, 100 mM CaCl2, 0.0005% Brij using 7.5 μM fluorogenic substrate Mca-Lys-Pro-Leu-Gly-Leu-Dpa-Ala-Arg-NH2 (Sigma) for MMP-1 and 1.25 μM fluorogenic substrate Mca-Pro-Cha-Gly-Nva-His-Ala-Dpa-NH2 (Millipore) for MMP-13. Activity against human neutrophil elastase (HNE, Enzo Life Sciences) was assessed in 100 mM HEPES pH 7.5, 500 mM NaCl, 0.01% of Triton X-100 using 100 μM fluorogenic substrate MeOSuc-AAPV-AMC (Enzo Life Sciences).

Structure (SMILES)	EC50 (IL-1β activation)	fraction unbound at 4 h, 10 μM [1]	IC50 (LasB S241G)	IC50 (MMP-13)
COc1cc2sc(CNC(=O)C3(CC(=O)O)Cc4ccccc4C3)nc2cc1OCCC[N+](C)(C)C [Compound 12]	~500 nM	0.24	221 nM	> 100000 nM
COc1cc2sc(CNC(=O)C3(CC(=O)O)Cc4cc(F)c(F)cc4C3)nc2cc1OCCC[N+](C)(CCO)CCO [Compound 16]	~500 nM	0.18	206 nM	> 100000 nM
